Experimental data taken from ChEMBL document CHEMBL3885881, “DrugMatrix”.

Species: Rattus norvegicus
Experiment: DrugMatrix - Regimen: Daily Repeat
Format: toxicity, organism-based, Sprague-Dawley
Design: regimen Daily Repeat, gender Male, age 6-8 weeks
Details: in vivo, po, 0 mg/kg, route oral GAVAGE, dose level Control, vehicle .5 % CMC; for ABSOLUTE BASOPHIL / ABSOLUTE EOSINOPHIL / ABSOLUTE LYMPHOCYTE / ABSOLUTE MONOCYTE / ABSOLUTE SEGMENTED NEUTROPHIL / BASOPHIL / EOSINOPHIL / ERYTHROCYTE COUNT / HEMATOCRIT / HEMOGLOBIN / LEUKOCYTE COUNT / LYMPHOCYTE / MEAN CORPUSCULAR HEMOGLOBIN / MEAN CORPUSCULAR HEMOGLOBIN CONCENTRATION / MEAN CORPUSCULAR VOLUME / MONOCYTE / NEUTROPHIL / NUCLEATED RED BLOOD CELLS / PLATELET COUNT: tissue Blood; for ALANINE AMINOTRANSFERASE / ALBUMIN / ALKALINE PHOSPHATASE / ASPARTATE AMINOTRANSFERASE / BLOOD UREA NITROGEN / CARBON DIOXIDE / CHLORIDE / CHOLESTEROL / CREATININE / GLUCOSE / LACTATE DEHYDROGENASE / LIPASE / PHOSPHORUS / POTASSIUM / SODIUM / TOTAL BILIRUBIN / TOTAL PROTEIN / URIC ACID: tissue Plasma

COc1ccccc1[N+](=O)[O-] [2-NITROANISOLE]
ABSOLUTE BASOPHIL (72 h, time 3 day): 0 CELLS/uL | ABSOLUTE EOSINOPHIL (72 h, time 3 day): 279.83 CELLS/uL | ABSOLUTE LYMPHOCYTE (72 h, time 3 day): 13152.5 CELLS/uL | ABSOLUTE MONOCYTE (72 h, time 3 day): 1013.83 CELLS/uL | ABSOLUTE SEGMENTED NEUTROPHIL (72 h, time 3 day): 2420.5 CELLS/uL | BASOPHIL (72 h, time 3 day): 0% | EOSINOPHIL (72 h, time 3 day): 1.67% | ERYTHROCYTE COUNT (72 h, time 3 day): 5.26 x10E6/uL | HEMATOCRIT (72 h, time 3 day): 32.22% | HEMOGLOBIN (72 h, time 3 day): 12.02 G/DL | LEUKOCYTE COUNT (72 h, time 3 day): 16.87 x10E3/uL | LYMPHOCYTE (72 h, time 3 day): 77.83% | MEAN CORPUSCULAR HEMOGLOBIN (72 h, time 3 day): 22.93 pg | MEAN CORPUSCULAR HEMOGLOBIN CONCENTRATION (72 h, time 3 day): 37.32 G/DL | MEAN CORPUSCULAR VOLUME (72 h, time 3 day): 61.4 fL | MONOCYTE (72 h, time 3 day): 6% | NEUTROPHIL (72 h, time 3 day): 14.5% | NUCLEATED RED BLOOD CELLS (72 h, time 3 day): 0 /100WBC | PLATELET COUNT (72 h, time 3 day): 1122.17 x10E3/uL | ALANINE AMINOTRANSFERASE (72 h, time 3 day): 55.67 u/L | ALBUMIN (72 h, time 3 day): 4.35 G/DL | ALKALINE PHOSPHATASE (72 h, time 3 day): 362.67 u/L | ASPARTATE AMINOTRANSFERASE (72 h, time 3 day): 96 u/L | BLOOD UREA NITROGEN (72 h, time 3 day): 18 mg/dL | CARBON DIOXIDE (72 h, time 3 day): 27.5 mmol/L | CHLORIDE (72 h, time 3 day): 100.17 MEQ/L | CHOLESTEROL (72 h, time 3 day): 74.5 mg/dL | CREATININE (72 h, time 3 day): 0.17 mg/dL | GLUCOSE (72 h, time 3 day): 141.67 mg/dL | LACTATE DEHYDROGENASE (72 h, time 3 day): 682.5 u/L | LIPASE (72 h, time 3 day): 10 u/L | PHOSPHORUS (72 h, time 3 day): 11.5 mg/dL | POTASSIUM (72 h, time 3 day): 6.41 MEQ/L | SODIUM (72 h, time 3 day): 141.2 MEQ/L | TOTAL BILIRUBIN (72 h, time 3 day): 0.18 mg/dL | TOTAL PROTEIN (72 h, time 3 day): 5.88 G/DL | URIC ACID (72 h, time 3 day): 1.4 mg/dL | ABSOLUTE BASOPHIL (120 h, time 5 day): 0 CELLS/uL | ABSOLUTE EOSINOPHIL (120 h, time 5 day): 18.5 CELLS/uL | ABSOLUTE LYMPHOCYTE (120 h, time 5 day): 8146.83 CELLS/uL | ABSOLUTE MONOCYTE (120 h, time 5 day): 204.83 CELLS/uL | ABSOLUTE SEGMENTED NEUTROPHIL (120 h, time 5 day): 1329.83 CELLS/uL | BASOPHIL (120 h, time 5 day): 0% | EOSINOPHIL (120 h, time 5 day): 0.17% | ERYTHROCYTE COUNT (120 h, time 5 day): 5.37 x10E6/uL | HEMATOCRIT (120 h, time 5 day): 33.17% | HEMOGLOBIN (120 h, time 5 day): 12.07 G/DL | LEUKOCYTE COUNT (120 h, time 5 day): 9.7 x10E3/uL | LYMPHOCYTE (120 h, time 5 day): 85.33% | MEAN CORPUSCULAR HEMOGLOBIN (120 h, time 5 day): 22.52 pg | MEAN CORPUSCULAR HEMOGLOBIN CONCENTRATION (120 h, time 5 day): 36.42 G/DL | MEAN CORPUSCULAR VOLUME (120 h, time 5 day): 61.78 fL | MONOCYTE (120 h, time 5 day): 1.83% | NEUTROPHIL (120 h, time 5 day): 12.67% | NUCLEATED RED BLOOD CELLS (120 h, time 5 day): 0 /100WBC | PLATELET COUNT (120 h, time 5 day): 907.5 x10E3/uL | ALANINE AMINOTRANSFERASE (120 h, time 5 day): 58.5 u/L | ALBUMIN (120 h, time 5 day): 4.4 G/DL | ALKALINE PHOSPHATASE (120 h, time 5 day): 377.67 u/L | ASPARTATE AMINOTRANSFERASE (120 h, time 5 day): 140.33 u/L | BLOOD UREA NITROGEN (120 h, time 5 day): 15.33 mg/dL | CARBON DIOXIDE (120 h, time 5 day): 32.17 mmol/L | CHLORIDE (120 h, time 5 day): 100 MEQ/L | CHOLESTEROL (120 h, time 5 day): 71.83 mg/dL | CREATININE (120 h, time 5 day): 0.18 mg/dL | GLUCOSE (120 h, time 5 day): 185 mg/dL | LACTATE DEHYDROGENASE (120 h, time 5 day): 241.5 u/L | LIPASE (120 h, time 5 day): 9.5 u/L | PHOSPHORUS (120 h, time 5 day): 13.02 mg/dL | POTASSIUM (120 h, time 5 day): 6.45 MEQ/L | SODIUM (120 h, time 5 day): 143.45 MEQ/L | TOTAL BILIRUBIN (120 h, time 5 day): 0.22 mg/dL | TOTAL PROTEIN (120 h, time 5 day): 6.1 G/DL | URIC ACID (120 h, time 5 day): 1 mg/dL | ABSOLUTE BASOPHIL ([…], time 14 day): 0 CELLS/uL | ABSOLUTE EOSINOPHIL ([…], time 14 day): 117.17 CELLS/uL | ABSOLUTE LYMPHOCYTE ([…], time 14 day): 13562 CELLS/uL | ABSOLUTE MONOCYTE ([…], time 14 day): 534.83 CELLS/uL | ABSOLUTE SEGMENTED NEUTROPHIL ([…], time 14 day): 2486 CELLS/uL | BASOPHIL ([…], time 14 day): 0% | EOSINOPHIL ([…], time 14 day): 0.83% | ERYTHROCYTE COUNT ([…], time 14 day): 6.14 x10E6/uL | HEMATOCRIT ([…], time 14 day): 36.87% | HEMOGLOBIN ([…], time 14 day): 13.87 G/DL | LEUKOCYTE COUNT ([…], time 14 day): 16.7 x10E3/uL | LYMPHOCYTE ([…], time 14 day): 81% | MEAN CORPUSCULAR HEMOGLOBIN ([…], time 14 day): 22.63 pg | MEAN CORPUSCULAR HEMOGLOBIN CONCENTRATION ([…], time 14 day): 37.62 G/DL | MEAN CORPUSCULAR VOLUME ([…], time 14 day): 60.15 fL | MONOCYTE ([…], time 14 day): 3.17% | NEUTROPHIL ([…], time 14 day): 15% | NUCLEATED RED BLOOD CELLS ([…], time 14 day): 0 /100WBC | PLATELET COUNT ([…], time 14 day): 974.83 x10E3/uL | ALANINE AMINOTRANSFERASE ([…], time 14 day): 52.33 u/L | ALBUMIN ([…], time 14 day): 4.48 G/DL | ALKALINE PHOSPHATASE ([…], time 14 day): 346.17 u/L | ASPARTATE AMINOTRANSFERASE ([…], time 14 day): 81 u/L | BLOOD UREA NITROGEN ([…], time 14 day): 15.67 mg/dL | CARBON DIOXIDE ([…], time 14 day): 34.33 mmol/L | CHLORIDE ([…], time 14 day): 100.17 MEQ/L | CHOLESTEROL ([…], time 14 day): 70.83 mg/dL | CREATININE ([…], time 14 day): 0.22 mg/dL | GLUCOSE ([…], time 14 day): 141.17 mg/dL | LACTATE DEHYDROGENASE ([…], time 14 day): 121.33 u/L | LIPASE ([…], time 14 day): 8.33 u/L | PHOSPHORUS ([…], time 14 day): 9.97 mg/dL | POTASSIUM ([…], time 14 day): 6.4 MEQ/L | SODIUM ([…], time 14 day): 143.72 MEQ/L | TOTAL BILIRUBIN ([…], time 14 day): 0.22 mg/dL | TOTAL PROTEIN ([…], time 14 day): 6.45 G/DL | URIC ACID ([…], time 14 day): 1.25 mg/dL
